Data: patent US4464354A, “(3,4-c)-Pyrido psoralens, process of preparation, application in cosmetology and therapeutics, and cosmetological and pharmaceutical composition with them” (Institut National de la Sante et de la Recherche Medicale, priority 1982, dated 1984)
Like-named read-outs stand apart in the source and are kept apart here.

Assays:
DNA = settings: background statement; cited from earlier work
[1] = test system: V79 chinese hamster cells; assay: antiproliferatory effect: inhibition of colony formation of V79 cells; type: cell-based; settings: 5×10^-6 M, UVA
Method: The photobiological activity of the two monofunctional componds 1a and 1b have been studied in mammalian cells in vitro in order to determine their antiproliferatory effect.
A diploid strain of V79 chinese hamster cells were used.
The action of the compounds on cell survival (i.e. the antiproliferatory effect) was determined by measuring their power to inhibit the capacity of cells to form colonies. The technique used is that described by C.

psoriatic plaque = assay: therapeutic test comparing 8-methoxypsoralen and product 1b; type: in vivo, human; settings: 10^-2 M, one patient without further treatment
Source text: The concentrations of 8-MOP and product 1b were 10^-2 M in the same excipient as that used in the previous therapeutic test. Both preparations were applied on two rounded zones 3 cm in diameter, located on the same psoriatic plaque and were irradiated according to the same procedure of gradually increasing ultraviolet irradiation until a maximum of 10 J/cm2 per treatment.

[2] = test system: DNA of cells of the wild type; assay: direct biochemical verification of cross-linking in DNA of cells treated and irradiated at 365 nm; type: cell-based, yeast; settings: 10^-5 M, 365 nm, two doses (30% and 5% survival rate)
Source text: Indeed, DNA of cells of the wild type were extracted immediately after treatment with products 1a, 1b at a concentration of 10^-5 M and irradiation with two doses of radiation at 365 nm (30% and 5% survival rate). […] If the DNA contains cross-links it renatures itself and is found in the double chain form separable by gradient density from single chain DNA.

[3] = background statement, cited from earlier work
[4] = test system: Saccharomyces cerevisiae yeast; assay: induction of lethal effects in yeast with 365 nm irradiation (UVA); type: cell-based; settings: yeast
Method: This photobiological activity has in effect been defined by the induction of lethal effects, the induction of "small colony" cytoplasmic mutations (damage in the mitochondrial DNA) and the induction of nuclear mutations (reverse and forward). The experiments were conducted in the customary manner in conformity with the following references:
Thus, the dose of UVA must be between 2.5 and 5 times weaker in the case of compounds 1a and 1b than in the case of 8-MOP to attain the same survival rate.

[5] = mice, after exposure to light in the near ultraviolet range around 365 nm; cited from earlier work

Compound	capability of forming cross-links in DNA (DNA)	LD10 (dose which leaves 10% survive) [1] [J/cm2]	deterioration after end of treatment (psoriatic plaque)	form of DNA after renaturation (cross-links) [2]	mutagenic activity and carcinogenesis in animals [3]	photodynamic activity (oxygen dependent) on induction of lethal damages [4]	carcinogenicity [5]	mutagenic activity and carcinogenesis in animals ([3]; listed as 5-methoxy psoralen)
COc1c2occc2cc2ccc(=O)oc12 [8-methoxypsoralen, reference compound]	capable of forming cross-links in the DNA	3800	rapid deterioration	cross-linked double strand DNA	high mutagenic activity and carcinogenesis in animals	comparable	–	–
COc1c2ccoc2cc2oc(=O)ccc12 [5-methoxypsoralen]	capable of forming cross-links in the DNA	–	–	–	high mutagenic activity and carcinogenesis in animals	–	carcinogenic in mice	mutagenic
Cc1cc2c(ccc3c(C)cc(=O)oc32)o1 [4,5'-dimethylangelicine, reference compound]	–	–	–	–	–	comparable	–	–
